Assay results published in patent US20120252827A1, “COMBINATION OF THERAPY COMPRISING ZD6474 AND A TAXANE” (priority 2001, published 2012).

Test system: GEO human colon cancer xenografts
Test: GEO human colon cancer xenograft model: ZD6474 dosed intraperitoneally
Type: in vivo, BALB/c athymic (nu+/nu+) mice
Details: GEO xenografts s.c. in mice; for Average time (days) from day 28 to reach an average tumour volume of 2 cm^3 (approximately 10% of mouse body weight): paclitaxel 400 μg/mouse i.p., ZD6474 100 mg/kg/day i.p.; for Average tumour volume on day 28 after tumour cell injection: treatment from day 7, paclitaxel 400 μg/mouse i.p. days 7, 14, 21, 28, ZD6474 100 mg/kg/day i.p. days 7-11, 14-18, 21-25, 28-32
Description: a) Geo Human Colon Cancer Xenograft Model: ZD6474 Dosed Intraperitoneally
Female BALB/c athymic (nu+/nu+) mice 4-6 weeks of age were injected subcutaneously (s.c.) with GEO human colon cancer cells (10^7 cells resuspended in 200 μl Matrigel) on day 0. Treatment was initiated on day 7 after s.c. implantation of GEO cells when the average tumour volume was 0.25 (+0.05) cm^3. 10 mice per group were treated either with intraperitoneal (i.p.) paclitaxel (400 μg/mouse) on days 7, 14, 21 and 28, or with ZD6474 (100 mg/kg/day i.p. suspended in a 1% (v/v) solution of polyoxyethylene (20) sorbitan mono-oleate in deionised water) on days 7-11, 14-18, 21-25 and 28-32, or with a combination of both agents. In the case of combination treatments, where mice received both agents on the same day, paclitaxel was given 10-15 minutes before ZD6474. Tumour size was measured using the formula π/6×larger diameter×(smaller diameter)^2.
The average tumour volume on day 28 following tumour cell injection in control mice, 1.95 (+0.15) cm^3, was approximately 10% of nude mouse body weight and mice in this group were sacrificed at this time. […] Statistical evaluations of time to reach a tumour volume of 2 cm^3 has been done using the Mantel-Cox logrank test with the following results: ZD6474 (100 mg/kg) versus control (p=0.001); paclitaxel+ZD6474 (100 mg/kg) versus control (p=0.0001); paclitaxel+ZD6474 (100 mg/kg) versus paclitaxel (p=0.001); paclitaxel+ZD6474 (100 mg/kg) versus ZD6474 (100 mg/kg) (p=0.01).

SMILES	Average time (days) from day 28 to reach an average tumour volume of 2 cm^3 (approximately 10% of mouse body weight)	Average tumour volume on day 28 after tumour cell injection
CC(=O)O[C@H]1C(=O)[C@@]2(C)[C@H]([C@H](OC(=O)c3ccccc3)[C@]3(O)C[C@H](OC(=O)[C@H](O)[C@@H](NC(=O)c4ccccc4)c4ccccc4)C(C)=C1C3(C)C)[C@]1(OC(C)=O)CO[C@@H]1C[C@@H]2O [Paclitaxel, paclitaxel]	14 (±3) days	0.95 (±0.1) cm^3
COc1cc2c(Nc3ccc(Br)cc3F)ncnc2cc1OCC1CCN(C)CC1 [ZD6474, 4-(4-bromo-2-fluoroanilino)-6-methoxy-7-(1-methylpiperidin-4-ylmethoxy)quinazoline]	29 (±2) days	0.1 (±0.05) cm^3
